This is an account of results in US20150259344A1, “IMIDAZOLE DERIVATIVE” (DAINIPPON SUMITOMO PHARMA CO., LTD., priority 2012, published 2015).

The test concerns the target T1, human α7 nAChR (Homo sapiens, UniProt P36544).
T1 construct: expressed in transfected cells
Put plainly: Evaluation of PAM activity with human α7 nACh receptor stably expressing cells (aequorin luminescence, FDSS7000). Type of test: cell-based. Conditions: for activity at 10 µM: 10 μM test compound, read-out: α7PAM (%) @10 μM; for activity at 10 µM / activity at 1 µM: ACh at EC20, ratio of RLU (Max-Min) to control wells; for activity at 1 µM: 1 μM test compound (values marked *, footnote of Table 25), read-out: α7PAM (%) @1 μM. A digest of the protocol: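 Human α7 nAChR stable cells loaded with 4 μM Viviren (final) for 4 h at room temperature in the dark. Compounds in Hanks/20 mM HEPES/0.2% BSA were added and luminescence recorded on FDSS7000. PAM activity = RLU (Max-Min) ratio of test wells to control wells.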

T1 sequence (P36544 23-502): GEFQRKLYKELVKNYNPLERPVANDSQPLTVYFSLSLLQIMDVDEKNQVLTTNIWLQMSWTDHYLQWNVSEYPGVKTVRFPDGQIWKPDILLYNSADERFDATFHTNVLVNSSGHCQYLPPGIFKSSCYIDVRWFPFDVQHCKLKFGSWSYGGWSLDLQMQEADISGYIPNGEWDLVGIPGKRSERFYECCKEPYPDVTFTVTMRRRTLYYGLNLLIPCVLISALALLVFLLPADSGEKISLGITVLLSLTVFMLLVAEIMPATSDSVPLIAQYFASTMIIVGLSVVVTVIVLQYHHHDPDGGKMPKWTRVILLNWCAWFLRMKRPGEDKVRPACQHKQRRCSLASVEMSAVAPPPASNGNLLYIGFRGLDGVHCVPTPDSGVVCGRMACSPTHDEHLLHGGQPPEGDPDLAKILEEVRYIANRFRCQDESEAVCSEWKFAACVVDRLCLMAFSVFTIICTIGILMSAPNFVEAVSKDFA

With `O=C(NC1CCC(F)(F)CC1)N1[C@@H]2CC[C@H]1C[C@@H](n1cnc(-c3ccc(F)cc3F)c1Cl)C2` [Example 394], the activity at 10 µM amounted to 455%.

Regarding `O=C(NC1CCOCC1)N1[C@@H]2CC[C@H]1C[C@@H](n1cnc(-c3ccc(F)cc3F)c1Cl)C2` [Example 395], the activity at 10 µM is 869%.

For the molecule `O=C(NC1CCC(F)(F)CC1)N1[C@@H]2CC[C@H]1C[C@@H](n1cnc(-c3cc(F)ccc3F)c1Cl)C2` [Example 396], the activity at 10 µM worked out at 585%.

In the case of `O=C(NC1CCOCC1)N1[C@@H]2CC[C@H]1C[C@@H](n1cnc(-c3cc(F)ccc3F)c1Cl)C2` [Example 397], the activity at 10 µM is 522%.

Take `O=C(NC1CCC(F)(F)CC1)N1[C@@H]2CC[C@H]1C[C@@H](n1cnc(-c3cccc(F)c3F)c1Cl)C2` [Example 398]: the activity at 10 µM turned out to be 607%.

With `O=C(NC1CCOCC1)N1[C@@H]2CC[C@H]1C[C@@H](n1cnc(-c3cccc(F)c3F)c1Cl)C2` [Example 399], the activity at 10 µM was 891%.

As for `N#Cc1c(-c2ccc(F)cc2F)ncn1[C@H]1C[C@H]2CC[C@@H](C1)N2C(=O)NC1CCC(F)(F)CC1` [Example 402], the activity at 10 µM worked out at 498%.

For `N#Cc1c(-c2cc(F)ccc2F)ncn1[C@H]1C[C@H]2CC[C@@H](C1)N2C(=O)NC1CCC(F)(F)CC1` [Example 403], the activity at 1 µM was 590%.

Turning to `N#Cc1c(-c2cccc(F)c2F)ncn1[C@H]1C[C@H]2CC[C@@H](C1)N2C(=O)NC1CCC(F)(F)CC1` [Example 404], the activity at 10 µM is 292%.

Take `O=C(NC1CCCCC1)N1[C@@H]2CC[C@H]1C[C@H](n1cnc(-c3ccc(F)cc3)c1)C2` [Example 405]: the activity at 10 µM turned out to be 402%.

Take `O=C(NC1CCCCC1)N1[C@@H]2CC[C@H]1C[C@H](n1cnc(-c3ccccc3)c1)C2` [Example 406]: the activity at 10 µM was 629%.

In the case of `O=C(NC1CCC(F)(F)CC1)N1[C@@H]2CC[C@H]1C[C@H](n1cnc(-c3ccc(F)cc3F)c1)C2` [Example 407], the activity at 10 µM came out at 904%.

For the molecule `O=C(NC1CCCCC1)N1[C@@H]2CC[C@H]1C[C@H](n1cnc(-c3ccc(F)cc3F)c1)C2` [Example 408], the activity at 10 µM came to 140%.

As to `O=C(NC1CCC(F)(F)CC1)N1[C@@H]2CC[C@H]1C[C@H](n1cnc(-c3cccc(F)c3F)c1)C2` [Example 409], the activity at 10 µM stood at 576%.

Regarding `O=C(NC1CCCCC1)N1[C@@H]2CC[C@H]1C[C@H](n1cnc(-c3cccc(F)c3F)c1)C2` [Example 410], the activity at 10 µM was found to be 197%.

Take `O=C(NC1CCCCC1)N1[C@@H]2CC[C@H]1C[C@H](n1cnc(-c3cc(F)ccc3F)c1)C2` [Example 411]: the activity at 10 µM is 229%.

`O=C(NC1CCC(F)(F)CC1)N1[C@@H]2CC[C@H]1C[C@H](n1cnc(-c3cc(F)ccc3F)c1)C2` [Example 412]: the activity at 10 µM was 423%.

For `O=C(NC1CCC(F)(F)CC1)N1[C@@H]2CC[C@H]1C[C@H](n1cnc(-c3ccc(F)cc3F)c1Cl)C2` [Example 415], the activity at 10 µM amounted to 997%.

With `O=C(NC1CCOCC1)N1[C@@H]2CC[C@H]1C[C@H](n1cnc(-c3ccc(F)cc3F)c1Cl)C2` [Example 416], under “comparison across Tables 18 to 25”, the “PAM activity for α7 nAChR (in words)” value is “stronger PAM activity than others”.

`O=C(NC1CCC(F)(F)CC1)N1[C@@H]2CC[C@H]1C[C@H](n1cnc(-c3cc(F)ccc3F)c1Cl)C2` [Example 419]: the activity at 10 µM was determined as 913%.

For `N#Cc1c(-c2ccc(F)cc2)ncn1[C@@H]1C[C@H]2CC[C@@H](C1)N2C(=O)NC1CCCCC1` [Example 421], the activity at 10 µM turned out to be 426%.

Consider `N#Cc1c(-c2ccc(F)cc2F)ncn1[C@@H]1C[C@H]2CC[C@@H](C1)N2C(=O)NC1CCC(F)(F)CC1` [Example 422], for which the activity at 10 µM came out at 131%.

Take `N#Cc1c(-c2cc(F)ccc2F)ncn1[C@@H]1C[C@H]2CC[C@@H](C1)N2C(=O)NC1CCC(F)(F)CC1` [Example 423]: the activity at 1 µM stood at 390%.

In the case of `N#Cc1c(-c2cccc(F)c2F)ncn1[C@@H]1C[C@H]2CC[C@@H](C1)N2C(=O)NC1CCC(F)(F)CC1` [Example 424], the activity at 10 µM was found to be 210%.

As for `O=C(C1CCC(F)(F)CC1)N1[C@@H]2CC[C@H]1C[C@@H](n1cnc(-c3ccc(F)cc3)c1)C2` [Example 425], the activity at 10 µM turned out to be 155%.

On to `O=C(C1CCC(F)(F)CC1)N1[C@@H]2CC[C@H]1C[C@@H](n1cnc(-c3ccc(F)cc3F)c1)C2` [Example 426], for which the activity at 10 µM was 308%.

Take `O=C(C1CCC(F)(F)CC1)N1[C@@H]2CC[C@H]1C[C@@H](n1cnc(-c3ccccc3F)c1)C2` [Example 427]: the activity at 10 µM worked out at 305%.

In the case of `O=C(C1CCC(F)(F)CC1)N1[C@@H]2CC[C@H]1C[C@@H](n1cnc(-c3ccccc3)c1)C2` [Example 428], the activity at 10 µM was 144%.

On to `O=C(C1CCC(F)(F)CC1)N1[C@@H]2CC[C@H]1C[C@@H](n1cnc(-c3cccc(F)c3F)c1)C2` [Example 429], for which the activity at 1 µM is 111%.

On to `O=C(C1CCC(F)(F)CC1)N1[C@@H]2CC[C@H]1C[C@@H](n1cnc(-c3cc(F)ccc3F)c1)C2` [Example 430], for which the activity at 1 µM turned out to be 110%.

In the case of `O=C(C1CCC(F)(F)CC1)N1[C@@H]2CC[C@H]1C[C@@H](n1cnc(-c3ccc(F)cc3)c1Cl)C2` [Example 431], the activity at 10 µM is 836%.

In the case of `O=C(C1CCC(F)(F)CC1)N1[C@@H]2CC[C@H]1C[C@@H](n1cnc(-c3ccccc3F)c1Cl)C2` [Example 434], the activity at 10 µM came out at 512%.

For the molecule `O=C(C1CCOCC1)N1[C@@H]2CC[C@H]1C[C@@H](n1cnc(-c3ccc(F)cc3F)c1Cl)C2` [Example 436], the activity at 10 µM came out at 300%.

Take `O=C(C1CCC(F)(F)CC1)N1[C@@H]2CC[C@H]1C[C@@H](n1cnc(-c3cc(F)ccc3F)c1Cl)C2` [Example 437]: the activity at 10 µM is 533%.

`O=C(C1CCOCC1)N1[C@@H]2CC[C@H]1C[C@@H](n1cnc(-c3cc(F)ccc3F)c1Cl)C2` [Example 438]: the activity at 10 µM amounted to 235%.

For the molecule `O=C(C1CCC(F)(F)CC1)N1[C@@H]2CC[C@H]1C[C@@H](n1cnc(-c3cccc(F)c3F)c1Cl)C2` [Example 439], the activity at 10 µM came out at 813%.

As for `O=C(C1CCOCC1)N1[C@@H]2CC[C@H]1C[C@@H](n1cnc(-c3cccc(F)c3F)c1Cl)C2` [Example 440], the activity at 10 µM worked out at 508%.

For `N#Cc1c(-c2ccc(F)cc2F)ncn1[C@H]1C[C@H]2CC[C@@H](C1)N2C(=O)C1CCC(F)(F)CC1` [Example 443], the activity at 1 µM is 368%.

On to `N#Cc1c(-c2cc(F)ccc2F)ncn1[C@H]1C[C@H]2CC[C@@H](C1)N2C(=O)C1CCC(F)(F)CC1` [Example 444], for which the activity at 10 µM stood at 208%.

With `N#Cc1c(-c2cccc(F)c2F)ncn1[C@H]1C[C@H]2CC[C@@H](C1)N2C(=O)C1CCC(F)(F)CC1` [Example 445], the activity at 10 µM amounted to 272%.

As for `O=C(C1CCC(F)(F)CC1)N1[C@@H]2CC[C@H]1C[C@H](n1cnc(-c3ccc(F)cc3)c1)C2` [Example 446], the activity at 10 µM worked out at 143%.

On to `O=C(C1CCC(F)(F)CC1)N1[C@@H]2CC[C@H]1C[C@H](n1cnc(-c3ccc(F)cc3F)c1)C2` [Example 447], for which the activity at 10 µM was 268%.

As to `O=C(C1CCC(F)(F)CC1)N1[C@@H]2CC[C@H]1C[C@H](n1cnc(-c3ccccc3F)c1)C2` [Example 448], the activity at 10 µM is 276%.

Consider `O=C(C1CCC(F)(F)CC1)N1[C@@H]2CC[C@H]1C[C@H](n1cnc(-c3ccccc3)c1)C2` [Example 449], for which the activity at 10 µM was determined as 183%.

As to `O=C(C1CCC(F)(F)CC1)N1[C@@H]2CC[C@H]1C[C@H](n1cnc(-c3cccc(F)c3F)c1)C2` [Example 450], the activity at 10 µM was 128%.

For `O=C(C1CCC(F)(F)CC1)N1[C@@H]2CC[C@H]1C[C@H](n1cnc(-c3cc(F)ccc3F)c1)C2` [Example 451], the activity at 1 µM worked out at 143%.

For `O=C(C1CCC(F)(F)CC1)N1[C@@H]2CC[C@H]1C[C@H](n1cnc(-c3cccc(F)c3F)c1Cl)C2` [Example 457], the activity at 10 µM is 865%.

Take `O=C(C1CCOCC1)N1[C@@H]2CC[C@H]1C[C@H](n1cnc(-c3cccc(F)c3F)c1Cl)C2` [Example 458]: the activity at 10 µM worked out at 434%.

On to `O=C(C1CCC(F)(F)CC1)N1[C@@H]2CC[C@H]1C[C@H](n1cnc(-c3cc(F)ccc3F)c1Cl)C2` [Example 459], for which the activity at 10 µM was found to be 730%.

Regarding `O=C(C1CCOCC1)N1[C@@H]2CC[C@H]1C[C@H](n1cnc(-c3cc(F)ccc3F)c1Cl)C2` [Example 460], the activity at 10 µM turned out to be 390%.

Consider `N#Cc1c(-c2ccc(F)cc2)ncn1[C@@H]1C[C@H]2CC[C@@H](C1)N2C(=O)C1CCC(F)(F)CC1` [Example 461], for which the activity at 10 µM is 162%.

Turning to `N#Cc1c(-c2ccc(F)cc2F)ncn1[C@@H]1C[C@H]2CC[C@@H](C1)N2C(=O)C1CCC(F)(F)CC1` [Example 462], the activity at 10 µM is 384%.

On to `N#Cc1c(-c2cccc(F)c2F)ncn1[C@@H]1C[C@H]2CC[C@@H](C1)N2C(=O)C1CCC(F)(F)CC1` [Example 463], for which the activity at 1 µM is 181%.

On to `N#Cc1c(-c2cc(F)ccc2F)ncn1[C@@H]1C[C@H]2CC[C@@H](C1)N2C(=O)C1CCC(F)(F)CC1` [Example 464], for which the activity at 1 µM was determined as 124%.
